Assay results taken from patent US6867225B2, “Thiazole or oxazole derivatives which are useful in the treatment of cardiovascular and related diseases” (SmithKline Beecham Corporation, priority 2001, dated 2005).

Columns and labels:
Experiment in all cases: Transient transfection (transactivation) assay in CV-1 cells, GAL4 chimera, SPAP reporter
Format in all cases: cell-based
[1] = biological target: T1, hPPAR α (Homo sapiens, UniProt Q07869)
T1 construct: expressed in transfected cells; host or cells: CV-1 cells
T1 sequence (Q07869 239-466 limits assumed): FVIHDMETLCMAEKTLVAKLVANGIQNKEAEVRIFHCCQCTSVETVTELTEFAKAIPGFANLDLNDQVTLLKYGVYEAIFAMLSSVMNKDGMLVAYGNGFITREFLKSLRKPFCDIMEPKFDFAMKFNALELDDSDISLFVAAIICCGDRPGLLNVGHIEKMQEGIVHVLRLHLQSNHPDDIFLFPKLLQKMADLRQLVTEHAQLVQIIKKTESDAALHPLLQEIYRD
Description: (§1) Compounds were screened for functional potency in transient transfection assays in CV-1 cells for their ability to activate the PPAR subtypes (transactivation assay). A previously established chimeric receptor system was utilized to allow comparison of the relative transcriptional activity of the receptor subtypes on the same target gene and to prevent endogenous receptor activation from complicating the interpretation of results. See, for example, Lehmann, J. M.; Moore, L. B.; Smith-Oliver, Oliver T. A.; Wilkison, W. O.; Willson, T. M.; Kliewer, S. A., An antidiabetic thiazolidinedione is a high affinity ligand for peroxisome proliferator-activated receptor gamma (PPAR gamma), J. Biol. Chem., 1995, 270, 12953-6. The ligand binding domains for murine and human PPAR alpha, PPAR gamma, and PPAR delta were each fused to the yeast transcription factor GAL4 DNA binding domain. CV-1 cells were transiently transfected with expression vectors for the respective PPAR chimera along with a reporter construct containing five copies of the GAL4 DNA binding site driving expression of secreted placental alkaline phosphatase (SPAP) and β-galactosidase. After 16 h, the medium was exchanged to DME medium supplemented with 10% delipidated fetal calf serum and the test compound at the appropriate concentration. After an additional 24 h, cell extracts were prepared and assayed for alkaline phosphatase and β-galactosidase activity. Alkaline phosphatase activity was corrected for transfection efficiency using the β-galactosidase activity as an internal standard (see, for example, Kliewer, S. A., et. al. Cell 83, 813-819 (1995)). Rosiglitazone (BRL 49653) was used as a positive control in the hPPAR gamma assay. The positive control in the hPPAR alpha assays was 2-(2-methyl-3-[3-{3-(4-cyclohexylamino)[6-(4-fluorophenylpiperazin-1-yl)][1,3,5]triazin-2-ylamino}propyl]phenylthio)-2-methylpropionic acid. The positive control for PPAR delta assays was 2-{2-methyl-4-[({4-methyl-2-{-{trifluoromethyl)phenyl]-1,3-thiazol-5-yl}methyl)sulfanyl]phenoxy}acetic acid.

[2] = biological target: T2, hPPAR δ (Homo sapiens, UniProt Q03181)
T2 construct: expressed in transfected cells; host or cells: CV-1 cells
T2 sequence (Q03181 211-439 limits assumed): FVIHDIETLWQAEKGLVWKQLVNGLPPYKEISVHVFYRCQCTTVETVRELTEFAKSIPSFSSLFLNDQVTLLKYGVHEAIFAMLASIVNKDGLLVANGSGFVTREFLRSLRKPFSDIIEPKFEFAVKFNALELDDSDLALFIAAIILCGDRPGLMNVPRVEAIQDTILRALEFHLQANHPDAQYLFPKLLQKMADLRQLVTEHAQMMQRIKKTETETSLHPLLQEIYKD
Description: as §1

[3] = biological target: T3, hPPAR γ (Homo sapiens, UniProt P37231)
T3 construct: expressed in transfected cells; host or cells: CV-1 cells
T3 sequence (P37231 238-503 limits assumed): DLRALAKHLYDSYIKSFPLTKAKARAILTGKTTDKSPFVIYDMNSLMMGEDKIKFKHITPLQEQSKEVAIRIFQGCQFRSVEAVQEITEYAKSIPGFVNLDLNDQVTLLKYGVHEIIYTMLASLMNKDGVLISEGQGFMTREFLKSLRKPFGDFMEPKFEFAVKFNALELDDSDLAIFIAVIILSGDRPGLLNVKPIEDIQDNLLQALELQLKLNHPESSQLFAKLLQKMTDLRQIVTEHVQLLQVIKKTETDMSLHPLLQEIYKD
Description: as §1

- EC50 [1]: 10 nM
- EC50 [2]: 8600 nM
- EC50 [3]: 2220 nM
SMILES: Cc1nc(-c2ccc(C(F)(F)F)cc2)sc1C(=O)NC1CCCc2cc(OC(C)(C)C(=O)O)ccc21 (stereo not drawn) [Example 4]
